# Laboratory results as given in ChEMBL document CHEMBL5154679, “A target and efficient synthetic strategy for structural and bioactivity optimization of a fungal natural product” (Eur J Med Chem, 2022).
# Activity calls are given as the source filed them. No cut-off for these calls is given here.
# Key:
# HCT-116 [1] = assay: Antiproliferative activity against human HCT-116 cells assessed as reduction in cell viability incubated for 48 hrs by SRB assay; format: functional, cell-based; conditions: HCT-116, 48 h
# MGC-803 = assay: Antiproliferative activity against human MGC-803 cells assessed as reduction in cell viability incubated for 48 hrs by SRB assay; format: functional, cell-based; conditions: MGC-803, 48 h
# HeLa [2] = assay: Antiproliferative activity against human HeLa cells assessed as reduction in cell viability incubated for 48 hrs by SRB assay; format: functional, cell-based
# MDA-MB-231 [3] = assay: Antiproliferative activity against human MDA-MB-231 cells assessed as reduction in cell viability incubated for 48 hrs by SRB assay; format: functional, cell-based; conditions: MDA-MB-231, 48 h
# [4] = Cytotoxicity against human HUVEC cells assessed as reduction in cell viability incubated for 48 hrs by SRB assay; format: toxicity, cell-based
# [5] = Cytotoxicity against human L02 cells assessed as reduction in cell viability incubated for 48 hrs by SRB assay; format: toxicity, cell-based
# HepG2 = assay: Antiproliferative activity against human HepG2 cells assessed as reduction in cell viability incubated for 48 hrs by SRB assay; format: functional, cell-based; conditions: HepG2, 48 h
# MCF7 [6] = assay: Antiproliferative activity against human MCF7 cells assessed as reduction in cell viability incubated for 48 hrs by SRB assay; format: functional, cell-based; conditions: MCF7, 48 h
# HCT-116 [7] = assay: Inhibition of colony formation in human HCT-116 cells at 2 ug/ml measured after 48 hrs by crystal violet staining based analysis; format: functional, cell-based; conditions: dose 2.0 µg/ml
# HeLa [8] = assay: Inhibition of colony formation in human HeLa cells at 2 ug/ml measured after 48 hrs by crystal violet staining based analysis; format: functional, cell-based; conditions: dose 2.0 µg/ml
# MCF7 [9] = assay: Inhibition of colony formation in human MCF7 cells at 2 ug/ml measured after 48 hrs by crystal violet staining based analysis; format: functional, cell-based; conditions: dose 2.0 µg/ml
# [10] = Half life in Sprague-Dawley rat at 1 mg/kg, iv by LC-MS/MS analysis; format: ADME, organism-based; conditions: in vivo
# [11] = AUC (0 to infinity) in Sprague-Dawley rat at 1 mg/kg, iv by LC-MS/MS analysis; format: ADME, organism-based; set-up: time infinity, dose 1 mg/kg, route iv; conditions: in vivo
# MDA-MB-231 [12] = assay: Anti-invasive activity against human MDA-MB-231 cells assessed as inhibition of cell invasion at 2 ug/ml measured after 24 hrs by transwell assay; format: functional, cell-based; conditions: dose 2.0 µg/ml
# [13] = MRT (0 to t) in Sprague-Dawley rat at 1 mg/kg, iv by LC-MS/MS analysis; format: ADME, organism-based; conditions: in vivo
# MDA-MB-231 [14] = assay: Anti-adhesion activity against human MDA-MB-231 cells assessed as inhibition of cell adhesion measured after 6 hrs by microscopic analysis; format: functional, cell-based
# [15] = Clearance in Sprague-Dawley rat at 1 mg/kg, iv by LC-MS/MS analysis; format: ADME, organism-based; conditions: in vivo
# MDA-MB-231 [16] = assay: Anti-metastasis activity against human MDA-MB-231 cells assessed as inhibition of cell migration at 2 ug/ml measured after 24 hrs by scratch wound healing assay; format: functional, cell-based; conditions: dose 2.0 µg/ml
# [17] = Volume of distribution in Sprague-Dawley rat at 1 mg/kg, iv by LC-MS/MS analysis; format: ADME, organism-based; conditions: in vivo
# [18] = MRT (0 to infinity) in Sprague-Dawley rat at 1 mg/kg, iv by LC-MS/MS analysis; format: ADME, organism-based; conditions: in vivo
# [19] = Tmax in Sprague-Dawley rat at 1 mg/kg, iv by LC-MS/MS analysis; format: ADME, organism-based; conditions: in vivo
# [20] = Cmax in Sprague-Dawley rat at 1 mg/kg, iv by LC-MS/MS analysis; format: ADME, organism-based; set-up: dose 1 mg/kg, route iv; conditions: in vivo
# [21] = AUC (0 to t) in Sprague-Dawley rat at 1 mg/kg, iv by LC-MS/MS analysis; format: ADME, organism-based; set-up: dose 1 mg/kg, route iv; conditions: in vivo
compound,measurement,setting,value
COc1cc(=O)oc(/C=C/C=C/C=C/[C@@]2(C)C[C@]3(C)O[C@H](C)[C@](C)(O2)[C@H]3C(=O)C(C)(C)C)c1C,IC50,HCT-116 [1],4.98 µg/mL
COc1cc(=O)oc(/C=C/C=C/C=C/[C@]2(C)O[C@]3(C)[C@@H](C(C)=O)[C@@](C)(O[C@@H]3C)[C@H]2C(C)=O)c1C,IC50,HCT-116 [1],5.77 µg/mL
COc1cc(=O)oc(/C=C/C=C/C=C/C(C)=C/C2(C)O[C@H](C)[C@](C)(O)[C@H]2O)c1C (some centres not stated),IC50,HCT-116 [1],19.8 µg/mL
CCC[C@@H]1[C@@]2(C)O[C@@](C)(/C=C/C=C/C=C/c3oc(=O)cc(OC)c3C)C[C@]1(C)O[C@@H]2C,IC50,HCT-116 [1],5.9 µg/mL
COc1cc(=O)oc(/C=C/C=C/C=C/[C@@]2(C)C[C@]3(C)O[C@H](C)[C@](C)(O2)[C@H]3C(=O)Cc2ccc(Cl)cc2)c1C,IC50,HCT-116 [1],6.44 µg/mL
COc1cc(=O)oc(/C=C/C=C/C=C/[C@@]2(C)C[C@]3(C)O[C@H](C)[C@](C)(O2)[C@H]3C(=O)c2ccccc2)c1C,IC50,HCT-116 [1],1.52 µg/mL
same,IC50,MGC-803,3.97 µg/mL
same,IC50,HeLa [2],0.85 µg/mL
same,IC50,MDA-MB-231 [3],4.38 µg/mL
same,IC50 at 48 h,[4],> 50 µg/mL
same,IC50 at 48 h,[5],30.1 µg/mL
same,IC50,HepG2,3.96 µg/mL
same,IC50,MCF7 [6],0.92 µg/mL
COc1cc(=O)oc(/C=C/C=C/C=C/[C@@]2(C)C[C@]3(C)O[C@H](C)[C@](C)(O2)[C@H]3C(=O)CCc2ccc(Cl)cc2)c1C,IC50,HCT-116 [1],4.89 µg/mL
COc1cc(=O)oc(/C=C/C=C/C=C/[C@@]2(C)C[C@]3(C)O[C@H](C)[C@](C)(O2)[C@H]3C(C)=O)c1C,IC50,HCT-116 [1],7.04 µg/mL
COc1cc(=O)oc(/C=C/C=C/C=C/[C@@]2(C)C[C@]3(C)O[C@H](C)[C@](C)(O2)[C@H]3C(=O)c2cccs2)c1C,IC50,HCT-116 [1],0.63 µg/mL
same,IC50,MGC-803,3.97 µg/mL
same,IC50,HeLa [2],1.01 µg/mL
same,IC50,MDA-MB-231 [3],2.87 µg/mL
same,inhibition,HCT-116 [7],Active
same,IC50 at 48 h,[4],> 50 µg/mL
same,IC50 at 48 h,[5],> 50 µg/mL
same,IC50,HepG2,2.42 µg/mL
same,inhibition,HeLa [8],Active
same,IC50,MCF7 [6],0.62 µg/mL
same,inhibition,MCF7 [9],Active
COc1cc(=O)oc(/C=C/C=C/C=C/[C@@]2(C)C[C@]3(C)O[C@H](C)[C@](C)(O2)[C@H]3C(=O)c2ccc(C#N)cc2)c1C,IC50,HCT-116 [1],11.3 µg/mL
COc1cc(=O)oc(/C=C/C=C/C=C/[C@@]2(C)C[C@]3(C)O[C@H](C)[C@](C)(O2)[C@H]3C(=O)c2ccccn2)c1C,IC50,HCT-116 [1],11.4 µg/mL
COc1cc(=O)oc(/C=C/C=C/C=C/[C@@]2(C)C[C@]3(C)O[C@H](C)[C@](C)(O2)[C@H]3C(=O)c2ccc(Cl)cc2)c1C,IC50,HCT-116 [1],1.23 µg/mL
same,half-life,[10],503 min
same,IC50,MGC-803,1.54 µg/mL
same,IC50,HeLa [2],1.35 µg/mL
same,AUC(0-inf),[11],8640 ng·h/mL
same,Activity,MDA-MB-231 [12],Active
same,IC50,MDA-MB-231 [3],4.04 µg/mL
same,MRT last,[13],313 min
same,inhibition,HCT-116 [7],Active
same,Activity,MDA-MB-231 [14],Active
same,clearance,[15],2 mL/min/kg
same,IC50 at 48 h,[4],> 50 µg/mL
same,IC50 at 48 h,[5],> 50 µg/mL
same,Activity,MDA-MB-231 [16],Active
same,Vd,[17],1.42 L/kg
same,MRT inf,[18],521 min
same,IC50,HepG2,1.96 µg/mL
same,inhibition,HeLa [8],Active
same,IC50,MCF7 [6],0.68 µg/mL
same,inhibition,MCF7 [9],Active
same,Tmax,[19],7.2 min
same,Cmax,[20],3040 ng/mL
same,AUC(0-t),[21],7710 ng·h/mL
COc1cc(=O)oc(/C=C/C=C/C=C/[C@]2(C)O[C@]3(C)[C@@H](O)[C@@](C)(O[C@@H]3C)[C@H]2O)c1C,IC50,HCT-116 [1],14.9 µg/mL
same,half-life,[10],21 min
same,AUC(0-inf),[11],206 ng·h/mL
same,Activity,MDA-MB-231 [12],Active
same,MRT last,[13],19.8 min
same,inhibition,HCT-116 [7],Active
same,clearance,[15],83.2 mL/min/kg
same,Activity,MDA-MB-231 [16],Active
same,Vd,[17],2.5 L/kg
same,MRT inf,[18],21 min
same,inhibition,HeLa [8],Active
same,inhibition,MCF7 [9],Active
same,Tmax,[19],6 min
same,Cmax,[20],417 ng/mL
same,AUC(0-t),[21],203 ng·h/mL
COc1cc(=O)oc(/C=C/C=C/C=C/[C@@]2(C)C[C@]3(C)O[C@H](C)[C@](C)(O2)[C@H]3C(=O)c2ccco2)c1C,IC50,HCT-116 [1],1.4 µg/mL
same,IC50,MGC-803,5.79 µg/mL
same,IC50,HeLa [2],1.48 µg/mL
same,IC50,MDA-MB-231 [3],4.46 µg/mL
same,IC50 at 48 h,[4],> 50 µg/mL
same,IC50 at 48 h,[5],> 50 µg/mL
same,IC50,HepG2,4.19 µg/mL
same,IC50,MCF7 [6],0.74 µg/mL
CCC[C@H]1[C@@]2(C)O[C@H](C)[C@]1(C)O[C@@](C)(/C=C/C=C/C=C/c1oc(=O)cc(OC)c1C)[C@@H]2CCC,IC50,HCT-116 [1],4.29 µg/mL
COc1ccc(C(=O)[C@@H]2[C@@]3(C)O[C@@](C)(/C=C/C=C/C=C/c4oc(=O)cc(OC)c4C)C[C@]2(C)O[C@@H]3C)cc1,IC50,HCT-116 [1],4.97 µg/mL
COc1cc(=O)oc(/C=C/C=C/C=C/[C@@]2(C)C[C@]3(C)O[C@H](C)[C@](C)(O2)[C@H]3C(=O)c2ccncc2)c1C,IC50,HCT-116 [1],13.5 µg/mL
COc1cccc2c1C(=O)c1c(O)c3c(c(O)c1C2=O)C[C@@](O)(C(=O)CO)C[C@@H]3O[C@H]1C[C@H](N)[C@H](O)[C@H](C)O1 [DOXORUBICIN],IC50,HCT-116 [1],3.36 µg/mL
same,IC50,MGC-803,0.51 µg/mL
same,IC50,HeLa [2],0.051 µg/mL
same,IC50,MDA-MB-231 [3],0.37 µg/mL
same,IC50 at 48 h,[4],23.3 µg/mL
same,IC50 at 48 h,[5],> 50 µg/mL
same,IC50,HepG2,0.64 µg/mL
COc1cc(=O)oc(/C=C/C=C/C=C/[C@]2(C)O[C@]3(C)[C@@H](C(=O)c4cccnc4)[C@@](C)(O[C@@H]3C)[C@H]2C(=O)c2cccnc2)c1C,IC50,HCT-116 [1],12.5 µg/mL
COc1cc(=O)oc(/C=C/C=C/C=C/[C@]2(C)O[C@]3(C)[C@@H](C(=O)c4ccccc4)[C@@](C)(O[C@@H]3C)[C@H]2C(=O)c2ccccc2)c1C,IC50,HCT-116 [1],28.8 µg/mL
COc1cc(=O)oc(/C=C/C=C/C=C/[C@@]2(C)C[C@]3(C)O[C@H](C)[C@](C)(O2)[C@H]3C(=O)c2cccnc2)c1C,IC50,HCT-116 [1],12.5 µg/mL
